{"source": "patent US12403144B2", "about": "“HECT E3 ligase inhibitors and uses thereof” (IFOM FONDAZIONE ISTITUTO FIRC DI ONCOLOGIA MOLECOLARE, priority 2019, dated 2025)", "molecular_target": "T1, HECT domain of NEDD4 (Homo sapiens, UniProt P46934)", "T1 construct": "crystal structure of the HECT domain of NEDD4 in complex with compound 12; made in house", "T1 sequence (P46934 519-900 isoform P46934-4 limits assumed)": "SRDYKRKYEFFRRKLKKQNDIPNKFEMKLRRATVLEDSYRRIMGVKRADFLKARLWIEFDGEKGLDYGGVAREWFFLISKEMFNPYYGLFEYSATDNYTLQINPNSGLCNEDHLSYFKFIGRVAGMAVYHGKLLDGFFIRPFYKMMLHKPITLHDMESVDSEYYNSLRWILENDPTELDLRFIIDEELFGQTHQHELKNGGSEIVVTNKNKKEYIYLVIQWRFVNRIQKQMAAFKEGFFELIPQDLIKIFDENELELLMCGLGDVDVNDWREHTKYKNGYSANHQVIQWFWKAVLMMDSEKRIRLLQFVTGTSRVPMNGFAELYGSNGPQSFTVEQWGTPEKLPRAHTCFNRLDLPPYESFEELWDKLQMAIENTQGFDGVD", "test": "X-Ray crystal structure of the HECT domain of NEDD4 in complex with compound", "type": "binding", "conditions": "crystal soaking; thiol group of Cys627 attacks the α,β-unsaturated ester", "excerpt": "FIG. 2: Structure of NEDD4 HECT in complex with compound 12. a. Compound 12 (dark grey sticks representation) binding to the HECT of NEDD4 (light grey), with a Fo-Fc map, calculated omitting the ligand, contoured at 2.5α level (represented as a grey mesh). b. Details of ligand binding: compound 12 and covalently or hydrogen-bonded NEDD4 residues are in ball-and-stick representation, hydrogen bond is shown as dotted line; spoked arcs represent protein residues making nonbonded contacts with the ligand.\nFIG. 3: Structure of apo NEDD4 HECT superimposed with the one of the complex HECT-compound 12. Changes in the HECT structure upon compound 12 binding. Apo-HECT (pdb entry 2xbf, version 1.2, 13 Jul. 2011) depicted as dark grey ribbon; complex depicted as light grey ribbon. Side chains of residues Glu554 and Tyr634, and to a less extent those of Tyr604 and Tyr605, as well as main and side chain of residue Cys627 (covalently bound to the inhibitor) are rearranged upon inhibitor binding.\nThe inventors obtained by X-Ray the crystal structure of the HECT domain of NEDD4 in complex with compound 12. […]", "data": [{"smiles": "CCOC(=O)/C=C/CNCCCCN1c2ccccc2CCc2ccc(Cl)cc21.O=C(O)/C=C\\C(=O)O", "note": "[Compound 12, Ethyl (E)-4-[4-(3-chloro-10,11-dihydro-5H-dibenzo[b,f]azepin-5-yl)butylamino]but-2-enoate maleate]", "values": [{"measurement": "binding mode in crystal structure of NEDD4 HECT complex", "result": "covalent link to the protein"}]}]}
